Measurements reported in patent US11180483B2, “Substituted reverse pyrimidine Bmi-1 inhibitors” (PTC Therapeutics, Inc., priority 2012, dated 2021).
pEC50: −log10 of the molar value.

Tested on: Bmi-1
Experiment: Sandwich ELISA Assay (Bmi-1 ELISA) in HT-1080 cells
Assay type: cell-based
Experimental: Cell Seeding and Compound Treatment (Day 1):
HT-1080 cells were seeded at 8000 cells/well (50 μL) in 96-well tissue culture plates. After the cells became adherent (3-4 hours), 2× diluted stocks of test compounds in 50 μL DMEM containing 1% DMSO (final DMSO concentration was 0.5%) were added and the plates were incubated at 37° C. under 5% CO2 for 40-48 hours.
ELISA Plate First Antibody Preparation (Day 2):
The First Antibody (Millipore Mouse, monoclonal to mouse Bmi-1, clone F6, catalog #05-637) diluted to 2 μg/mL in PBS was added (100 μL) to each well of a Nunc MaxiSorp 96-well ELISA plate. The plate was covered with a plate seal and allowed to stand overnight.
Cell Lysate Preparation (Day 3):
Fresh 1× Lysis buffer was prepared on the day of the assay as follows: 1 mM EDTA, 150 mM NaCl, 0.5% Triton-X 100, 10 mM NaF, 20 mM B-Glycerophosphate, 1 mM DTT (in PBS, pH 7.2-7.4) and 1× HALT protease inhibitor cocktail (Pierce #78410).
The 1× Lysis Buffer (40 μL) was added to each well and the plate was shaken for 5-10 minutes on an orbital shaker to allow cell lysis, then diluent (1% BSA in PBS in 0.5% NP40) (100 μL) was added to each well.
A standard curve was prepared at the following Bmi-1 concentrations: 8000, 4000, 2000, 1000, 500, 250, 125, 0 pg/mL The Bmi-1 Recombinant Protein Standard (Novus Biologicals PCGF4 Recombinant Protein (P01), catalog #H00000648-P01) used to prepare the standard curve was stored at −80° C. On first thaw, the Bmi-1 Recombinant Protein Standard was diluted to […] in Blocking Buffer (1% BSA in PBS; BSA: Fisher Scientific Catalog #1600-100). Aliquots were taken and refrozen at −80° C. The aliquots may be kept at 4° C. and reused after first thaw, but only within 1-2 weeks. The Bmi-1 Recombinant Protein Standard contains a GST-fusion tag that appears around 70 Kda on Western Blot.
The prepared ELISA plate was washed 3× with Wash Buffer (0.05% Tween-20 in PBS). The final wash was removed from the plate and the plate was blotted dry. Blocking Buffer (300 μL) (1% BSA in PBS) was added to each well. The plate was covered with a plate seal and incubated at room temperature for 1 hour. The blocked plate was washed 3× with Wash Buffer, then the final wash was removed and the plate was blotted dry. The previously prepared samples and standards were added (100 μL/well) and the plate was covered with a plate seal and incubated at 4° C. overnight.
The prepared ELISA plate was removed from 4° C., incubated at room temperature for 30 minutes, then washed and blotted dry as previously described for Day 3. The Second Antibody (Cell Signaling Rabbit anti-Bmi-1, Cat #2830) diluted to 1:600 in Blocking Buffer was added (100 μL) to each well, except as needed for background control wells. The plate was covered with a plate seal and incubated for 1.5 hrs at room temperature.
The ELISA plate was washed and blotted dry as previously described. The Third Antibody (Cell Signaling HRP conjugated anti-rabbit IgG (CellSignaling, Cat #:7074) diluted to 1:300 in Blocking Buffer was added (100 μL) to each well, except as needed for background control wells. The plate was incubated for 1 hr at room temperature.
The plate was washed and blotted dry as previously described, then prepared TMB substrate (TMB substrate kit, Pierce catalog #34021) (prepared by mixing kit reagents 1:1) (100 μL) was added per well. The plate was incubated for 20-30 minutes at room temperature in the dark, then Stop Solution (2 M sulfuric acid in water) (50 μL) was added per well. The plates were read at OD450 (experimental) and OD570 (reference).

pEC50	Compound
7.00 to 8.00	Nc1nc(-c2c(CO)nn3ccc(F)cc23)nc(Nc2ccc(OC(F)F)cc2)c1F [Cpd 181, [3-(4-amino-6-{[4-(difluoromethoxy)phenyl]amino}-5-fluoropyrimidin-2-yl)-5-fluoropyrazolo[1,5-a]pyridin-2-yl]methanol]
7.00 to 8.00	FC(F)(F)c1nc2ccc(Cl)cn2c1-c1nccc(Nc2ccc(Br)cc2)n1 [Cpd 15, N-(4-bromophenyl)-2-[6-chloro-2-(trifluoromethyl)imidazo[1,2-a]pyridin-3-yl]pyrimidin-4-amine]
5.52 to 7.00	Cc1nc2ccccc2n1-c1nc(N)cc(Nc2ccc([N+](=O)[O-])cc2)n1 [Cpd 211, 2-(2-methyl-1H-benzimidazol-1-yl)-N-(4-nitrophenyl)pyrimidine-4,6-diamine]
5.52 to 7.00	C=Cc1ccc2nc(C)n(-c3nc(N)cc(Nc4ccc(C(F)(F)F)cc4)n3)c2c1 [Cpd 91, 2-(6-ethenyl-2-methyl-1H-benzimidazol-1-yl)-N-[4-(trifluoromethyl)phenyl]pyrimidine-4,6-diamine]
5.52 to 7.00	FC(F)(F)c1ccc(Nc2ccnc(-c3c(C(F)(F)F)nc4ccccn34)n2)cc1 [Cpd 7, 2-[2-(trifluoromethyl)imidazo[1,2-a]pyridin-3-yl]-N-[4-(trifluoromethyl)phenyl]pyrimidin-4-amine]
5.52 to 7.00	Cc1nc2c(F)cc(F)cc2n1-c1nc(N)c(F)c(Nc2ccc(OC(F)(F)F)cc2)n1 [Cpd 238, 2-(4,6-difluoro-2-methyl-1H-benzimidazol-1-yl)-5-fluoro-N-[4-(trifluoromethoxy)phenyl]pyrimidine-4,6-diamine]
7.00 to 8.00	Nc1cc(Nc2ccc(C(F)(F)F)cc2)nc(-n2c(C3CC3)nc3ncc(F)cc32)n1 [Cpd 92, 2-(2-cyclopropyl-6-fluoro-1H-imidazo[4,5-b]pyridin-1-yl)-N-[4-(trifluoromethyl)phenyl]pyrimidine-4,6-diamine]
5.52 to 7.00	COc1ccc2nc(C(F)(F)F)c(-c3nccc(Nc4ccc(OC(F)F)cc4)n3)n2c1 [Cpd 51, N-[4-(difluoromethoxy)phenyl]-2-[6-methoxy-2-(trifluoromethyl)imidazo[1,2-a]pyridin-3-yl]pyrimidin-4-amine]
5.52 to 7.00	Fc1ccc2nc(C(F)(F)F)c(-c3nccc(Nc4ccc(OC(F)F)cc4)n3)n2c1 [Cpd 55, N-[4-(difluoromethoxy)phenyl]-2-[6-fluoro-2-(trifluoromethyl)imidazo[1,2-a]pyridin-3-yl]pyrimidin-4-amine]
5.52 to 7.00	Cc1nc2ccccc2n1-c1nc(N)c(Cl)c(Nc2ccc(C(F)(F)F)cc2)n1 [Cpd 166, 5-chloro-2-(2-methyl-1H-benzimidazol-1-yl)-N-[4-(trifluoromethyl)phenyl]pyrimidine-4,6-diamine]
7.00 to 8.00	COc1ccc2nc(C)n(-c3nc(N)c(F)c(Nc4ccc5c(c4)OCO5)n3)c2c1 [Cpd 250, N-(1,3-benzodioxol-5-yl)-5-fluoro-2-(6-methoxy-2-methyl-1H-benzimidazol-1-yl)pyrimidine-4,6-diamine]
5.52 to 7.00	Cc1nc2cc(F)ccc2n1-c1nc(N)c(F)c(Nc2ccc(OC(F)(F)F)cc2)n1 [Cpd 283, 5-fluoro-2-(5-fluoro-2-methyl-1H-benzimidazol-1-yl)-N-[4-(trifluoromethoxy)phenyl]pyrimidine-4,6-diamine]
7.00 to 8.00	COc1ccc(Nc2ccnc(-c3c(C(F)(F)F)nc4ccccn34)n2)cc1 [Cpd 12, N-(4-methoxyphenyl)-2-[2-(trifluoromethyl)imidazo[1,2-a]pyridin-3-yl]pyrimidin-4-amine]
7.00 to 8.00	Cc1nc2ccccc2n1-c1nc(N)c(F)c(Nc2ccc(Cl)cc2)n1 [Cpd 201, N-(4-chlorophenyl)-5-fluoro-2-(2-methyl-1H-benzimidazol-1-yl)pyrimidine-4,6-diamine]
7.00 to 8.00	CCc1nc2ccccc2n1-c1nc(N)cc(Nc2ccc(OC(F)F)c(F)c2)n1 [Cpd 157, N-[4-(difluoromethoxy)-3-fluorophenyl]-2-(2-ethyl-1H-benzimidazol-1-yl)pyrimidine-4,6-diamine]
